Results reported in patent US8975406B2, “Compound useful for the treatment of degenerative and inflammatory diseases” (Galapagos N.V., priority 2011, dated 2015).

Assays:
TYK2 = target: T1, TYK2 (Homo sapiens, UniProt P29597); assay: TYK2 Ki determination assay; type: biochemical; conditions: Lineweaver-Burk plot, polyGT substrate, varying ATP
T1 construct: catalytic domain (amino acids 871-1187; catalog number 08-147); GST; purchased Carna Biosciences 08-147
T1 sequence (P29597 871-1187): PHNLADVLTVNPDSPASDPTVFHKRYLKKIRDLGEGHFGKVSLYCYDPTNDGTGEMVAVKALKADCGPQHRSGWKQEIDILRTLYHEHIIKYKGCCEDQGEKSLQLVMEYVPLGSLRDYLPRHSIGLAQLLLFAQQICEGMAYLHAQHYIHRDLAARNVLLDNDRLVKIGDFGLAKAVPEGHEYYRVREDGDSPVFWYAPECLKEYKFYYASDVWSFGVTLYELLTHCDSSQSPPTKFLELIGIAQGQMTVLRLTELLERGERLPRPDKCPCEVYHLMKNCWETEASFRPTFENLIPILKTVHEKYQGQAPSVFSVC
Protocol: For the determination of Ki, different amounts of compound are mixed with the enzyme and the enzymatic reaction is followed as a function of ATP concentration. The Ki is determined by means of double reciprocal plotting of Km vs compound concentration (Lineweaver-Burk plot). TYK2 (Carna Biosciences, 08-147) was used at a final concentration of 160 ng/ml. The substrate was Poly(Glu,Tyr)sodium salt (4:1), MW 20 000-50 000 (Sigma, P0275) The reaction was performed in 25 mM Hepes pH 7.2, 50 mM NaCl, 0.5 mM EDTA, 1 mM DTT, 5 mM MnCl2, 10 mM MgCl2, 0.1% Brij-35 with varying concentrations of ATP and compound and stopped by addition of 150 mM phosphoric acid. Measurement of incorporated phosphate into the substrate polyGT was done by loading the samples on a filter plate (using a harvester, Perkin Elmer) and subsequent washing. Incorporated ^33P in polyGT is measured in a Topcount scintillation counter after addition of scintillation liquid to the filter plates (Perkin Elmer).

JAK3 = target: T2, JAK3 (Homo sapiens, UniProt P52333); assay: JAK3 Ki determination assay; type: biochemical; conditions: Lineweaver-Burk plot, polyGT substrate, varying ATP
T2 construct: catalytic domain (amino acids 795-1124; catalog number 08-046); purchased Carna Biosciences 08-046
Protocol: For the determination of Ki, different amounts of compound are mixed with the enzyme and the enzymatic reaction is followed as a function of ATP concentration. The Ki is determined by means of double reciprocal plotting of Km vs compound concentration (Lineweaver-Burk plot). JAK3 (Carna Biosciences, 08-046) was used at a final concentration of 20 ng/ml. The substrate was Poly(Glu,Tyr)sodium salt (4:1), MW 20 000-50 000 (Sigma, P0275) The reaction was performed in 25 mM Tris pH 7.5, 0.01% Triton X-100, 0.5 mM EGTA, 2.5 mM DTT, 0.5 mM Na3VO4, 5 mM b-glycerolphosphate, 10 mM MgCl2 with varying concentrations of ATP and compound and stopped by addition of 150 mM phosphoric acid. Measurement of incorporated phosphate into the substrate polyGT was done by loading the samples on a filter plate (using a harvester, Perkin Elmer) and subsequent washing. Incorporated ^33P in polyGT is measured in a Topcount scintillation counter after addition of scintillation liquid to the filter plates (Perkin Elmer).

rat CIA model = assay: Rat collagen induced arthritis (CIA) model; type: in vivo; conditions: dose of 0.1 mg/kg
Protocol: Completed Freund's adjuvant (CFA) and incomplete Freund's adjuvant (IFA) were purchased from Difco. Bovine collagen type II (CII), lipopolysaccharide (LPS), and Enbrel was obtained from Chondrex (Isle d'Abeau, France); Sigma (P4252, L′Isle d'Abeau, France), Whyett (25 mg injectable syringe, France) Acros Organics (Palo Alto, Calif.), respectively. All other reagents used were of reagent grade and all solvents were of analytical grade.
Dark Agouti rats (male, 7-8 weeks old) were obtained from Harlan Laboratories (Maison-Alfort, France). Rats were kept on a 12 hr light/dark cycle (0700-1900). Temperature was maintained at 22° C., and food and water were provided ad libitum.
One day before the experiment, CII solution (2 mg/mL) is prepared with 0.05 M acetic acid and stored at 4° C. Just before the immunization, equal volumes of adjuvant (IFA) and CII are mixed by a homogenizer in a pre-cooled glass bottle in an ice water bath. […]
Arthritis is scored according to the method of Khachigian 2006, Lin et al 2007 and Nishida et al. 2004). […]
The area under the curve (AUC) from day 1 to day 14 is calculated for each individual rat. The AUC of each animal is divided by the average AUC obtained for the vehicle in the study from which the data on that animal is obtained and multiplied by 100 (i.e. the AUC was expressed as a percentage of the average vehicle AUC per study). […]

T2 sequence (P52333 795-1124): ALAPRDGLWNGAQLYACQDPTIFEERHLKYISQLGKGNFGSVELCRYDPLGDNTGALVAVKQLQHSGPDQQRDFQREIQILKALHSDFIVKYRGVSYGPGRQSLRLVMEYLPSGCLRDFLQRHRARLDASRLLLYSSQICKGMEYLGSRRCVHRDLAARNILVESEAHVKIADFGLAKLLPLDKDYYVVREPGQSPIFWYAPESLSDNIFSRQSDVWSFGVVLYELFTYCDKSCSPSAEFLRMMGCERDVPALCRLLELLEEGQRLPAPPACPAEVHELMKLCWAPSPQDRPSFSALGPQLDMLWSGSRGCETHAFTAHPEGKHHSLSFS

- Ki (TYK2): 135 nM
- Ki (JAK3): 227 nM
Structure (SMILES): CC(=O)Nc1cc2c(-c3ccc(CN4CCN(S(C)(=O)=O)CC4)c(F)c3)cccn2n1 [Compound 21]
- normalized clinical score values (calculated as AUC or as the difference from day 1 to day 14) (rat CIA model): statistically significant improvements
